Assay results taken from patent US5459160A, “Iridoid derivatives and the use thereof as a drug” (Tsumura & Co., priority 1990, dated 1995).
Like-named read-outs stand apart in the source and are kept apart here.

Assays:
[1] = test system: cholesterol synthesis in liver slices; test: Cholesterol synthesis from [1-14C] acetic acid in liver slices (Experimental Example 2); format: cell-based, male Wistar rats; conditions: drug final concentration 0.1-1.0 mM, 37° C., 120 minutes; control 100; Table 2
Method: Liver slices (0.5 mm) were prepared from male Wistar rats 5 weeks old acclimated for 10 days in a bright/dark inversion raising chamber (bright period: 8:00 p.m.-8:00 a.m.). […] Incubation was carried out at 37° C. for 120 minutes in 95% oxygen and 5% carbon dioxide. The reaction was stopped by adding 1 m.iota. of 15% potassium hydroxide/ethanol, and saponification was carried out at 80° C. for 2 hours. The sterol fraction was extracted by petroleum ether and was evaporated to driness. Thereafter, 1 m.iota. of acetone/ethanol (1:1) and 1 m.iota. of 0.5% digitonine were added, and the mixture was left standing for a night at room temperature. The precipitate was collected by centrifugal separation and was washed with 2 m.iota. of acetone/ether (1:1). The precipitate was further centrifuged. After the supernatant was discarded, the precipitate was dissolved in methanol and its radioactivity was measured.

[2] = test system: cholic acid and chenodeoxycholic acid synthetic activity in liver cells; test: Synthetic activity of bile acid (cholic acid and chenodeoxycholic acid) in incubated liver cells (Experimental Example 3); format: cell-based, male Wistar rats; conditions: Rattus norvegicus, Hepatocyte, 24 hours, 37° C., control 100; for activity at 1 µM: 10^-6 M; for activity at 0.1 µM: 10^-7 M; for activity at 0.01 µM: 10^-8 M
Method: Influences on Synthetic Activity of Bilic Acid in Incubated Liver Cell
The liver cells were separated from male Wistar rats 5.0-5.5 weeks old using a reflux method in accordance with the method of Nakamura et al (Toshikazu Nakamura "The Experimental Method for the Primary Cultured Hepatocytes", 1987). In this case, the separation of the cells was started at 9-10:00 a.m. The separated liver cells were floated in a Williams E medium inactivated by heat-treatment and containing 10% FBS, 20 mU/m.iota. insulin, […] dexamethasone, 100 IU/m.iota. peniciline and 100 μg/m.iota. streptomycin so that the cell density became 1×10^5 cells/cm^2 /0.2 m.iota.. The liver cells were planted in a cell density of 1×10^5 cells/cm^2 /0.2 m.iota. in a dish having a diameter of 60 mm. After incubation at 37° C. for 4 hours, a medium exchange was made and the medium was changed to 3 m.iota.. Next, [4-^14 C] cholesterol was added in an amount of 11.655 kBq per dish, and a 0.33% ethanol solution of each test drug was added. Control used only 0.33% ethanol. After incubation was carried out at 37° C. for 24 hours, the synthetic activity of cholic acid and chemodexycholic acid generated in the cells and the medium were measured.
Measurement of Cholic Acid and Chenodeoxycholic Acid Synthetic Activity
The measurement of cholic acid and chenodeoxycholic acid synthetic activity was carried out in accordance with the method of M. G. Pricen et al (Hans M. G. Pricen, Chrisstine M. G. HuJismans, Folkerr Kuipers, Roel J. Vonk and Herman Jan M. Kempen, J. Clin. Invest., 78: 1064-1071, 1986). Twenty-four hours later, the cells and the medium were collected from the incubated liver cells and the cells were pulverized by a ultrasonic pulverizer. Bile acid was separated and eluted by a column cartridge having an opposite phase system, i.e., "Sep-pak"® C18 (Waters Associates, Milford, Mass.), and the conjugation of conjugated bile acid was hydrolyzed using choloylglycine hydrolase. The extraction of bile acid was carried out using chloroform after the solution was rendered acidic by hydrochloric acid. The extract was dissolved in 100 μ.iota. of water:methanol (1:4, containing 40 μg/10 μ.iota. cholic acid and 100 μg/100 μ.iota. chenodeoxycholic acid). 80 μ.iota. of this solution was spotted onto an aluminum plate (MERCK, ART 5582) and was developed using a developing solution consisting of benzene/1,4-dioxane/acetic acid (20:10:2). After the TLC plate was exposed to an iodine gas stream and each spot of bile acid was confirmed, it was cut off and its radioactivity was measured by a liquid scintillation counter. To correct the proportion of elution of the Sep-pak and the hydroclysis and extraction of conjugated bile acid by choloylglycine hydrolase, 2 nCi of [^3 H(G)] taurocholic acid was added and 3H of the spot of cholic acid was measured after the supersonic pulverization and correction was thus carried out (TsuJita, Y., Kuroda, M., Shimada, Y., Tanzawa, K., Arai, M., Kenko, I., Tanaka, M., Tarumi, C., Watanabe, Y., and Fujii, Biochemical et Biophysics Acta. 877:50-60, 1986).
Non-radioactive cholic acid and chenodeoxycholic acid were added as a carrier, to clarify the position of the spot by the iodine gas stream when bile acid was developed, but for the β-muricholic acid, the position of the spot was indefinite even when the non-radioactive acids were added. Therefore, the portion estimated by the Rf value described in the reference was cut off and measured again.

Acute toxicity test = conditions: mouse, in vivo, ip; male S.P.P. mice, abdominally administered; Table 11
Method: The acute toxicity test was carried out by abdominally administering each test drug to male S.P.P. mice and determining an LD50 value.

bile secretion = test: Cholagogic action, bile secretion (Experimental Example 5); format: in vivo, male Wistar rats; conditions: intraduodenal
Method: After male Wistar rats 7 weeks old were fasted for 24 hours, they were anesthetized by the interperitoneal administration of 1.25 g/kg (volume 2 m.iota./kg) of urethane. A polyethylene canula (SP-10, a product of Natsume Seisakusho) was inserted into a bile duct and after the bile was caused to flow out for 30 minutes, the bile was collected in the cource of 1 hour. Thereafter, each test drug was suspended or dissolved in a 1% aqueous Tween-80 solution, and was administered into the duodenum at a rate of 5 m.iota./kg. Furthermore, the bile was collected every hour in the course of five hours, and its weight was measured. Only a 1% Tween-80 solution was given as a control.
The results are tabulated in Tables 6, 7, 8, 9 and 10, wherein the bile secretion amount every hour was represented by a percentage with the bile secretion amount (mg) one hour before the dose of the test drug being 100.

hyperlipemia = test: Anti-hyperlipemia test in rats on high fat food (Experimental Example 1); format: in vivo, Male Wistar rats; conditions: peroral once a day, two weeks, control 100, Table 1
Excerpt: Male Wistar rats 6.5 weeks old were allowed to freely intake a high fat food (containing 1% of cholesterol, 0.5% of sodium cholate, 12% of beef tallow and 20% of standard chow) in the cource of two weeks, to thus cause an outbreak of hyperlipemia. The dose of the drug was started simultaneously with the application of the high fat food, and was perorally given once a day through a stomach tube until the end of the experiment. The drugs were all suspended in a cane sugar fatty acid ester and were administered. The oily compounds were adjusted in advance to 100 mg/m.iota. by diethyl ether. A suitable amount was collected at the time of the dose and after diethyl ether was evaporated and removed, it was suspended in a cane sugar fatty acid ester (1% ryoto sugar ester) and then given. After the final dose of the drug, the rats were fasted for about 18 hours, and the blood was sampled to measure the blood serum lipid. The blood serum lipid was measured by using a TBA-380 biochemical analyzer (a product of Toshiba Medical Co.,) unless a particular hindrance occurred.

[3] = Table 4, read-out: Relative amount of synthesized chenodeoxycholic acid
[4] = Table 4, read-out: Relative amount of synthesized cholic acid
[5] = 0-1 hour after dose, control 82.9, Table 6
[6] = 1-2 hour after dose, control 74.1, Table 6
[7] = 2-3 hour after dose, control 66.1, Table 6
[8] = 3-4 hour after dose, control 59.8, Table 6
[9] = 4-5 hour after dose, control 53.3, Table 6
[10] = Table 3, read-out: Relative amount of synthesized chenodeoxycholic acid
[11] = Table 3, read-out: Relative amount of synthesized cholic acid

Compound: COC(=O)C1=COC(O)[C@@H]2C(C=O)=CC[C@H]12 (stereo partly drawn) [Definite Example 23, methyl (4aS, 7aS)-7-formyl-1,4a, 5,7a-tetrahydro-1-hydroxycyclopenta[c]pyran-4-carboxylate]
- Relative amount of synthesized cholesterol (%) [1]: 80.1%

Compound: C[C@H]1COC(O)[C@H]2[C@@H]1CC[C@@H]2C (stereo partly drawn) [Definite Example 44, (4R, 4aR, 7S, 7aR)-1,3,4,4a, 5,6,7,7a-octahydro-4,7-dimethylcyclopenta[c]pyran-1-ol]
- activity at 1 µM [2, 3]: 155%
- activity at 1 µM [2, 4]: 130%
- LD50 (Acute toxicity test): 389 mg/kg
- Bile secretion amount, percentage of the hour before dose (bile secretion; [5]): 137.2%
- Bile secretion amount, percentage of the hour before dose (bile secretion; [6]): 95.0%
- Bile secretion amount, percentage of the hour before dose (bile secretion; [7]): 78.4%
- Bile secretion amount, percentage of the hour before dose (bile secretion; [8]): 66.5%
- Bile secretion amount, percentage of the hour before dose (bile secretion; [9]): 59.8%

Compound: C[C@@H](CO)[C@H]1CC[C@H](C)[C@H]1CO [Definite Example 45, (2R)-2-[(1R, 2R, 3S)-2-(hydroxymethyl)-3-methylcyclopent-1-yl]propan-1-ol]
- activity at 1 µM [2, 10]: 152%
- activity at 1 µM [2, 11]: 146%
- activity at 0.1 µM [2, 10]: 119%
- activity at 0.1 µM [2, 11]: 121%
- activity at 0.01 µM [2, 10]: 112%
- activity at 0.01 µM [2, 11]: 108%
- LD50 (Acute toxicity test): 406 mg/kg
- Bile secretion amount, percentage of the hour before dose (bile secretion; [5]): 163.8%
- Bile secretion amount, percentage of the hour before dose (bile secretion; 0-1 hour after dose, control 87.7, Table 7): 163.4%
- Bile secretion amount, percentage of the hour before dose (bile secretion; [6]): 99.7%
- Bile secretion amount, percentage of the hour before dose (bile secretion; 1-2 hour after dose, control 75.3, Table 7): 99.6%
- Bile secretion amount, percentage of the hour before dose (bile secretion; 2-3 hour after dose, control 65.0, Table 7): 75.2%
- Bile secretion amount, percentage of the hour before dose (bile secretion; [7]): 78.6%
- Bile secretion amount, percentage of the hour before dose (bile secretion; 3-4 hour after dose, control 58.7, Table 7): 61.7%
- Bile secretion amount, percentage of the hour before dose (bile secretion; [8]): 67.8%
- Bile secretion amount, percentage of the hour before dose (bile secretion; 4-5 hour after dose, control 51.8, Table 7): 53.3%
- Bile secretion amount, percentage of the hour before dose (bile secretion; [9]): 59.1%

Compound: COC(=O)C1=COC(OC(=O)c2ccccc2)C2C(C)=CCC12 [Definite Example 36, methyl (2S, 4aS, 7aS)-1-benzoyloxy-1,4a, 5,7a-tetrahydro-7-methylcyclopenta[c]pyran-4-carboxylate]
- Relative amount of synthesized cholesterol (%) [1]: 72.4%

Compound: CC1=COC(O)[C@H]2[C@@H]1CC[C@@H]2C (stereo partly drawn) [Definite Example 43, (4aS, 7S, 7aR)-1,4a, 5,6,7,7a-hexahydro-4,7-dimethylcyclopenta[c]pyran-1-ol]
- activity at 1 µM [2, 3]: 105%
- activity at 1 µM [2, 4]: 109%
- LD50 (Acute toxicity test): 231 mg/kg
- Bile secretion amount, percentage of the hour before dose (bile secretion; [5]): 156.2%
- Bile secretion amount, percentage of the hour before dose (bile secretion; [6]): 95.2%
- Bile secretion amount, percentage of the hour before dose (bile secretion; [7]): 76.1%
- Bile secretion amount, percentage of the hour before dose (bile secretion; [8]): 65.7%
- Bile secretion amount, percentage of the hour before dose (bile secretion; [9]): 58.3%

Compound: COC(=O)C1=COC(O)[C@@H]2[C@H](C)CC[C@H]12 (stereo partly drawn) [Definite Example 31, methyl (4aS, 7R, 7aR)-1,4a, 5,6,7,7a-hexahydro-1-hydroxy-7-methylcyclopenta[c]pyran-4-carboxylate]
- activity at 1 µM [2, 3]: 113%
- activity at 1 µM [2, 4]: 105%
- LD50 (Acute toxicity test): 814 mg/kg
- Bile secretion amount, percentage of the hour before dose (bile secretion; 0-1 hour after dose, control 84.1, Table 8): 126.7%
- Bile secretion amount, percentage of the hour before dose (bile secretion; 1-2 hour after dose, control 72.5, Table 8): 88.0%
- Bile secretion amount, percentage of the hour before dose (bile secretion; 2-3 hour after dose, control 63.8, Table 8): 73.0%
- Bile secretion amount, percentage of the hour before dose (bile secretion; 3-4 hour after dose, control 56.7, Table 8): 63.7%
- Bile secretion amount, percentage of the hour before dose (bile secretion; 4-5 hour after dose, control 51.2, Table 8): 55.1%
- Blood serum cholesterol (%) (hyperlipemia; 10 mg/kg): 82.0%
- Blood serum triglyceride (%) (hyperlipemia; 10 mg/kg): 79.0%
- Blood serum cholesterol (%) (hyperlipemia; 30 mg/kg): 96.1%
- Blood serum triglyceride (%) (hyperlipemia; 30 mg/kg): 76.5%

Compound: CCOC(C)O[C@@H]1OC=C(C(=O)OC)[C@H]2CC=C(C=O)[C@@H]12 (stereo partly drawn) [Definite Example 22, methyl (1S, 4aS, 7aS)-1-[1-(ethoxy)ethoxy]-7-formyl-1,4a, 5,7a-tetrahydrocyclopenta[c]pyran-4-carboxylate]
- Relative amount of synthesized cholesterol (%) [1]: 86.2%

Compound: COC(=O)C1=CO[C@@H](OC(C)=O)[C@@H]2C(C)=CC[C@H]12 [Definite Example 38, methyl (1S, 4aS, 7aS)-1-acetoxy-1,4a, 5,7a-tetrahydro-7-methylcyclopenta[c]pyran-4-carboxylate]
- Relative amount of synthesized cholesterol (%) [1]: 72.8%
